SMILES strings stand for the structures.

Results on 26 compounds are retold here after patent publication US10611750B2, “Tetrahydroquinoline compositions as bet bromodomain inhibitors” (FORMA Therapeutics, Inc., priority 2013, dated 2020).

Experiment [1] deals with T1, BRD4 Bromodomain 1 (BRD4 BD1) (Homo sapiens, UniProt O60885).
T1 construct: 44-168 and BRD4 BD2
Briefly: AlphaScreen binding assay, BRD4 BD1. Particulars: His-tagged BRD4 BD1 50 nM, biotinylated H4 (1-21) K5/8/12/16 tetra-acetylated peptide 50 nM, compounds listed under IC50 range headings. The procedure, abridged:
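Compound dilution series were mixed with His-tagged BRD4 bromodomain and biotinylated tetra-acetylated H4 (1-21) peptide at pH 7.3 (BD1 and peptide at 50 nM, BD2 and peptide at 100 nM). Donor and acceptor beads were then added, and plates were equilibrated at least 1 h before reading. IC50 values were fitted with a four-parameter logistic model.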

The subject of experiment [2] is acute myelocytic leukemia (AML) cell line MV4-11. Briefly: Oncology cell growth assay (3-day proliferation, CellTiter-Glo). The experiment is classed as cell-based. The note with it: Homo sapiens, MV4-11, 72 h, MV4-11 cells, 3000 cells/well, compounds listed under IC50 range headings, read-out: MV411 IC50 (gIC50, inhibition of proliferation). The procedure, abridged: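 A 3-day proliferation test used MV4-11 cells seeded at 3000 per well with eight compound concentrations (10 μM top, 3-fold dilution) at 37° C in 5% CO2. CellTiter-Glo luminescence defined viable cell signal. A four-parameter logistic curve against DMSO and background wells gave the gIC50.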
(In general: In ATP-based viability assays light output follows the ATP content of the culture.)

For the compound `COC(=O)N1c2ccc(-c3csc(NC(C)=O)n3)c(OC3CCC3)c2CC[C@@H]1C` [I-131, (S)-methyl 6-(2-acetamidothiazol-4-yl)-5-cyclobutoxy-2-methyl-3,4-dihydroquinoline-1(2H)-carboxylate], the IC50 in experiment [1] was in the range of 1000 to 10000 nM; in experiment [2], 500 to 1000 nM.

`Cc1ccc(Oc2c(-c3cnn(C4CCNCC4)c3)ccc3c2CC[C@H](C)N3C(=O)C2CC2)c(C)n1` [I-332, (S)-cyclopropyl(5-(2,6-dimethylpyridin-3-yloxy)-2-methyl-6-(1-(piperidin-4-yl)-1H-pyrazol-4-yl)-3,4-dihydroquinolin-1(2H)-yl)methanone]: the IC50 is 100 to 1000 nM in experiment [1] and less than 500 nM in experiment [2].

`C[C@H]1CCc2c(ccc(-c3cnn4c3N(S(C)(=O)=O)CC4)c2OC2CCC2)N1C(=O)C1CC1` [I-279, ((2S)-5-cyclobutoxy-2-methyl-6-(1-(methylsulfonyl)-2,3-dihydro-1H-pyrazolo[1,5-a]imidazol-7-yl)-3,4-dihydroquinolin-1 (2H)-yl)(cyclopropyl)methanone]: the IC50 was 1000 to 10000 nM in experiment [1] and greater than 1000 nM in experiment [2].

For the compound `COc1cccc(Oc2c(-c3cn(C)nn3)ccc3c2CC[C@H](C)N3C(=O)C2CC2)c1` [I-234, (S)-cyclopropyl(5-(3-methoxyphenoxy)-2-methyl-6-(1-methyl-1H-1,2,3-triazol-4-yl)-3,4-dihydroquinolin-1 (2H)-yl)methanone], the IC50 was 1000 to 10000 nM in experiment [1] and less than 500 nM in experiment [2].

Consider `COC(=O)N1c2ccc(-c3cnn(C4CCNCC4)c3)c(Oc3cccc(F)c3F)c2CC[C@@H]1C` [I-269, (S)-methyl 5-(2,3-difluorophenoxy)-2-methyl-6-(1-(piperidin-4-yl)-1H-pyrazol-4-yl)-3,4-dihydroquinoline-1(2H)-carboxylate], for which the IC50 was 100 to 1000 nM in experiment [1] and less than 500 nM in experiment [2].

In the case of `COC(=O)N1c2ccc(-c3cnn(C4CC5CNCC5C4)c3)c(OC3CCC3)c2CC[C@@H]1C` (stereo partly drawn) [I-109, (2S)-methyl 5-cyclobutoxy-2-methyl-6-(1-(octahydrocyclopenta[c]pyrrol-5-yl)-1H-pyrazol-4-yl)-3,4-dihydroquinoline-1(2H)-carboxylate], the IC50 in experiment [1] was 100 to 1000 nM; in experiment [2] it was less than 500 nM.

As for `C[C@H]1CCc2c(ccc(-c3cnn(C4CCNCC4)c3)c2Oc2cccc(Cl)c2)N1C(=O)C1CC1` [I-179, (S)-(5-(3-chlorophenoxy)-2-methyl-6-(1-(piperidin-4-yl)-1H-pyrazol-4-yl)-3,4-dihydroquinolin-1 (2H)-yl)(cyclopropyl)methanone], the IC50 in experiment [1] was 100 to 1000 nM; in experiment [2], less than 500 nM.

Take `C[C@H]1CCc2c(ccc(-c3cn(C4CCNCC4)nn3)c2OC2CCC2)N1C(=O)C1CC1` [I-310, (S)-(5-cyclobutoxy-2-methyl-6-(1-(piperidin-4-yl)-1H-1,2,3-triazol-4-yl)-3,4-dihydroquinolin-1(2H)-yl)(cyclopropyl)methanone]: the IC50 is 100 to 1000 nM in experiment [1] and less than 500 nM in experiment [2].

With `C[C@H]1CCc2c(ccc(-c3nnc(N)s3)c2OC2CCC2)N1C(=O)C1CC1` [I-127, (S)-(6-(5-amino-1,3,4-thiadiazol-2-yl)-5-cyclobutoxy-2-methyl-3,4-dihydroquinolin-1(2H)-yl)(cyclopropyl)methanone], the figures for the IC50 in experiment [1] and in experiment [2] were 100 to 1000 nM and less than 500 nM, respectively.

Take `COC(=O)N1c2ccc(C#N)c(Oc3ccccc3)c2CC[C@@H]1C` [I-344, (S)-methyl 6-cyano-2-methyl-5-phenoxy-3,4-dihydroquinoline-1(2H)-carboxylate]: the IC50 in experiment [1] is no less than 10000 nM; in experiment [2], greater than 1000 nM.

Consider `COC(=O)N1c2c(F)cc(-c3cn(C)nn3)c(Oc3ccccc3)c2CC[C@@H]1C` [I-322, (S)-methyl 8-fluoro-2-methyl-6-(1-methyl-1H-1,2,3-triazol-4-yl)-5-phenoxy-3,4-dihydroquinoline-1(2H)-carboxylate], for which the IC50 in experiment [1] was 100 to 1000 nM; in experiment [2], less than 500 nM.

`C[C@H]1CCc2c(ccc(-c3cnn(C4CCCS(=O)(=O)C4)c3)c2Oc2ccc(F)cc2)N1C(=O)C1CC1` (stereo partly drawn) [I-295, 3-{4-[(2S)-1-cyclopropanecarbonyl-5-(4-fluorophenoxy)-2-methyl-1,2,3,4-tetrahydroquinolin-6-yl]-1H-pyrazol-1-yl}-1λ^6-thiane-1,1-dione]: the IC50 is 100 to 1000 nM in experiment [1] and less than 500 nM in experiment [2].

Take `C[C@H]1CCc2c(ccc(-c3cn(C)nn3)c2Oc2cc(F)ccc2F)N1C(=O)C1CC1` [I-318, (S)-cyclopropyl(5-(2,5-difluorophenoxy)-2-methyl-6-(1-methyl-1H-1,2,3-triazol-4-yl)-3,4-dihydroquinolin-1(2H)-yl)methanone]: the figures for the IC50 in experiment [1] and in experiment [2] were 100 to 1000 nM and less than 500 nM, respectively.

With `COC(=O)N1c2c(F)cc(-c3cnn(C4CC4)c3)c(OC3CCC3)c2CC[C@@H]1C` [I-71, (S)-methyl 5-cyclobutoxy-6-(1-cyclopropyl-1H-pyrazol-4-yl)-8-fluoro-2-methyl-3,4-dihydroquinoline-1(2H)-carboxylate], the IC50 in experiment [1] was in the range of 100 to 1000 nM; in experiment [2], 500 to 1000 nM.

Consider `COC(=O)N1c2ccc(-c3cnn(C4CCN(C)CC4OC)c3)c(Oc3ccc(F)cc3)c2CC[C@@H]1C` (stereo partly drawn) [I-293, (2S)-methyl 5-(4-fluorophenoxy)-6-(1-(3-methoxy-1-methylpiperidin-4-yl)-1H-pyrazol-4-yl)-2-methyl-3,4-dihydroquinoline-1(2H)-carboxylate], for which the IC50 in experiment [1] is 100 to 1000 nM; in experiment [2] it was less than 500 nM.

`COC(=O)N1c2ccc(-c3csc(C4(F)CNC4)n3)c(OC3CCC3)c2CC[C@@H]1C` [I-349, (S)-methyl 5-cyclobutoxy-6-(2-(3-fluoroazetidin-3-yl)thiazol-4-yl)-2-methyl-3,4-dihydroquinoline-1(2H)-carboxylate]: the IC50 was 1000 to 10000 nM in experiment [1] and greater than 1000 nM in experiment [2].

Take `COc1cccc(Oc2c(-c3cnn(C4CCNCC4)c3)ccc3c2CC[C@H](C)N3C(C)=O)n1` [I-336, (S)-1-(5-(6-methoxypyridin-2-yloxy)-2-methyl-6-(1-(piperidin-4-yl)-1H-pyrazol-4-yl)-3,4-dihydroquinolin-1 (2H)-yl)ethanone]: the IC50 in experiment [1] was 100 to 1000 nM; in experiment [2], less than 500 nM.

`COC(=O)N1c2ccc(-c3cnn(C4CCCS(=O)(=O)C4)c3)c(Oc3ccc(F)cc3)c2CC[C@@H]1C` (stereo partly drawn) [I-222, Methyl (2S)-6-(1-(1,1-dioxidotetrahydro-2H-thiopyran-3-yl)-1H-pyrazol-4-yl)-5-(4-fluorophenoxy)-2-methyl-3,4-dihydroquinoline-1 (2H)-carboxylate]: the IC50 is 100 to 1000 nM in experiment [1] and less than 500 nM in experiment [2].

With `COC(=O)N1c2ccc(-c3csc(C4CNC4)n3)c(OC3CCC3)c2CC[C@@H]1C` [I-313, (S)-methyl 6-(2-(azetidin-3-yl)thiazol-4-yl)-5-cyclobutoxy-2-methyl-3,4-dihydroquinoline-1(2H)-carboxylate], the IC50 in experiment [1] is 100 to 1000 nM; in experiment [2], greater than 1000 nM.

Regarding `CC(=O)N1c2c(F)cc(-c3cnn(C4CCNCC4)c3)c(Oc3ccccc3)c2CC[C@@H]1C` [I-206, (S)-1-(8-fluoro-2-methyl-5-phenoxy-6-(1-(piperidin-4-yl)-1H-pyrazol-4-yl)-3,4-dihydroquinolin-1 (2H)-yl)ethanone], the values for the IC50 in experiment [1] and in experiment [2] were 100 to 1000 nM and less than 500 nM, respectively.

With `CC(=O)N1c2c(F)c(F)c(-c3cnn(C4CCNCC4)c3)c(OC3CCC3)c2CC[C@@H]1C` [I-106, (S)-1-(5-cyclobutoxy-7,8-difluoro-2-methyl-6-(1-(piperidin-4-yl)-1H-pyrazol-4-yl)-3,4-dihydroquinolin-1 (2H)-yl)ethanone], the figures for the IC50 in experiment [1] and in experiment [2] were 1000 to 10000 nM and greater than 1000 nM, respectively.

`COC(=O)N1c2ccc(-c3cn(C)c(C4CCNCC4)n3)c(OC3CCC3)c2CC[C@@H]1C` [I-304, methyl (S)-5-cyclobutoxy-2-methyl-6-(1-methyl-2-(piperidin-4-yl)-1H-imidazol-4-yl)-3,4-dihydroquinoline-1(2H)-carboxylate]: the figures for the IC50 in experiment [1] and in experiment [2] were no less than 10000 nM and greater than 1000 nM, respectively.

As for `COC(=O)N1c2ccc(-c3cnn(C4CCNCC4OC)c3)c(OC3CCC3)c2CC[C@@H]1C` (stereo partly drawn) [I-290, (2S)-methyl 5-cyclobutoxy-6-(1-(3-methoxypiperidin-4-yl)-1H-pyrazol-4-yl)-2-methyl-3,4-dihydroquinoline-1(2H)-carboxylate], the IC50 in experiment [1] was 100 to 1000 nM; in experiment [2], less than 500 nM.

As for `COC(=O)N1c2ccc(-c3cnn(C4CCNCC4)c3)c(Oc3cccc(OC)c3)c2CC[C@@H]1C` [I-198, (S)-methyl 5-(3-methoxyphenoxy)-2-methyl-6-(1-(piperidin-4-yl)-1H-pyrazol-4-yl)-3,4-dihydroquinoline-1(2H)-carboxylate], the IC50 in experiment [1] was 100 to 1000 nM; in experiment [2] it was less than 500 nM.

For the compound `COC(=O)N1c2ccc(-c3cnn(C4CCNCC4)c3)c(Oc3ccc(OC)cc3)c2CC[C@@H]1C` [I-199, (S)-methyl 5-(4-methoxyphenoxy)-2-methyl-6-(1-(piperidin-4-yl)-1H-pyrazol-4-yl)-3,4-dihydroquinoline-1(2H)-carboxylate], the figures for the IC50 in experiment [1] and in experiment [2] were 100 to 1000 nM and less than 500 nM, respectively.

Regarding `C[C@H]1CCc2c(ccc(-c3cnn4c3NCC4)c2OC2CCC2)N1C(=O)C1CC1` [I-278, ((2S)-5-cyclobutoxy-6-(2,3-dihydro-1H-pyrazolo[1,5-a]imidazol-7-yl)-2-methyl-3,4-dihydroquinolin-1(2H)-yl)(cyclopropyl)methanone], the figures for the IC50 in experiment [1] and in experiment [2] were 100 to 1000 nM and less than 500 nM, respectively.
